Assay results taken from ChEMBL document CHEMBL1152803, “Synthesis and vasodilator effects of rutaecarpine analogues which might be involved transient receptor potential vanilloid subfamily, member 1 (TRPV1)” (Bioorg Med Chem, 2009).
The source made the active and inactive calls. The calls are words filed in the database; no cut-off is given here.

These compounds were tested on Aorta (assay: Vasodilative activity against […] Sprague-Dawley rat thoracic aorta assessed as reduction in phenylepinephrine-induced contraction). Conditions: not given.
Format: functional, tissue-based

EC50 | SMILES | Emax
934 µM | COc1ccc2[nH]c3c(c2c1)CCN1C(=O)c2ccccc2OC31C (stereo not given) | 31.6%
20.1 µM | c1ccc2c(c1)CN1CCc3c([nH]c4ccccc34)C1N2 (stereo not given) [RUTAECARPANE] | 63.6%
15400 µM | O=c1c2ccccc2c(O)c2n1CCc1c-2[nH]c2ccccc12 | 14.1%
63600 µM | COc1ccc2[nH]c3c(c2c1)CCN1C(=O)c2ccccc2OC31 (stereo not given) | 13%
32.3 µM | O=c1c2cc(Cl)ccc2nc2n1CCc1c-2[nH]c2ccccc12 | 40.6%
21.1 µM | O=c1c2ccc(Cl)cc2nc2n1CCc1c-2[nH]c2ccccc12 | 36.6%
1590 µM | CC12Oc3ccccc3C(=O)N1CCc1c2[nH]c2ccccc12 (stereo not given) | 29.9%
220 µM | O=C1c2ccccc2OC2c3[nH]c4ccccc4c3CCN12 (stereo not given) | 39.8%
25.1 µM | c1ccc2c(c1)CN1CCc3c([nH]c4ccccc34)C1=N2 [RUTAECARPENE] | 68.9%
1.33 µM | O=c1c2ccccc2nc2n1CCc1c-2[nH]c2ccccc12 [RUTAECARPINE] | 79.3%
7.86 µM | O=C1c2ccccc2NC2(C(F)(F)F)c3[nH]c4ccccc4c3CCN12 (stereo not given) | 42.5%

More lines, now with the values behind:

SMILES | EC50 | Emax
COC(=O)C(Cc1c[nH]c2ccccc12)n1cnc2ccccc2c1=O (stereo not given) | 5460 µM | 15.5%
COc1ccc2[nH]c3c(c2c1)CCn1c-3nc2cc(Cl)ccc2c1=O | 22.5 µM | 33.9%
CC(=O)c1ccc2[nH]c3c(c2c1)CCn1c-3nc2ccccc2c1=O | 3.25 µM | 68.2%
COc1ccc2[nH]c3c(c2c1)CCn1c-3nc2ccc(Cl)cc2c1=O | 2.11 µM | 55.2%
COc1ccc2[nH]c3c(c2c1)CCn1c-3nc2cccc(Cl)c2c1=O | 19.7 µM | 37.1%
Cc1ccc2[nH]c3c(c2c1)CCn1c-3nc2ccccc2c1=O | 1.24 µM | 85.1%
COc1ccc2[nH]c3c(c2c1)CCn1c-3nc2ccc(Br)cc2c1=O | 9.4 µM | 40.3%
O=c1c2c(Cl)cccc2nc2n1CCc1c-2[nH]c2ccccc12 | 16.8 µM | 39.6%
COc1ccc2[nH]c3c(c2c1)CCn1c-3nc2ccccc2c1=O | 55.1 µM | 42.6%
O=c1c2ccccc2nc2n1CCc1c-2[nH]c2c(Cl)cccc12 | 2.44 µM | 50.1%
Cc1cccc2c3c([nH]c12)-c1nc2ccccc2c(=O)n1CC3 | 2.99 µM | 47%
COc1ccc2[nH]c3c(c2c1)CCn1c-3c(O)c2ccccc2c1=O | 5700 µM | 13.2%
O=c1c2ccccc2nc2n1CCc1c-2[nH]c2c(Cl)cc(Cl)c(Cl)c12 | 2.31 µM | 51%

What follows are compounds tested on Rattus norvegicus (assay: Antihypertensive activity against phenol-induced hypertension in iv dosed Sprague-Dawley rat assessed as decrease in mean arterial blood pressure). Conditions: Artery.
Format: functional, organism-based

SMILES | Activity
Cc1ccc2[nH]c3c(c2c1)CCn1c-3nc2ccccc2c1=O | Dose-dependent effect

The compounds below were run on Rattus norvegicus (assay: Antihypertensive activity against phenol-induced hypertension in Sprague-Dawley rat assessed as decrease in mean arterial pressure at 300 µg/kg, iv in presence of capsaicin administered 4 days before compound administration). Conditions: Artery.

SMILES | Activity
Cc1ccc2[nH]c3c(c2c1)CCn1c-3nc2ccccc2c1=O | inactive
